Experimental data as given in patent publication EP3868759A1, “2,3,5-SUBSTITUTED PYRROLO[2,3-B]PYRIDINES AS ERBB MODULATORS USEFUL FOR TREATING CANCER” (PearlRiver Bio GmbH, priority 2020, dated 2021).

How the values were obtained:
[1] = system: EGFR Exon 20 InsNPH Ba/F3; test: CellTiter-Glo cell viability, EGFR Exon 20 InsNPH Ba/F3; type: cell-based; details: Mus musculus, BaF3, 72 h, read-out: EGFR Exon 20 InsNPH Ba/F3 CTG IC50
Experimental: (§1) The CellTiter-Glo Luminescent Cell Viability Assay (Promega) is a homogeneous method of determining the number of viable cells in culture. It is based on quantification of ATP, indicating the presence of metabolically active cells. Cells are seeded on day 1 at cell numbers that assure assay linearity and optimal signal intensity. After incubation for 24h in humidified chambers at 37°C and 5% CO2, compounds in DMSO are added at different concentrations. Cells are further incubated for 72 h at 37°C and 5% CO2. Cells treated with the compound vehicle DMSO are used as positive controls and cells treated with 10 µM Staurosporine serve as negative controls. At day 5 the CellTiter Glo Reagent is prepared according to the instructions of the kit (Promega Inc.): Reagent is mixed 1:1 with cell culture medium. Thereon, mixture and assay plates are equilibrated at room temperature for 20 min. Equal volumes of the reagent-medium-mixture is added to the volume of culture medium present in each well. The plates are mixed at ∼200 rpm for 2 minutes on an orbital shaker. The microplates are then incubated at room temperature for 10 minutes for stabilization of the luminescent signal. Following incubation the luminescence is recorded on a Victor microplate reader (Perkin Elmer) using a 200 ms integration time. The data is then analyzed with Excel using the XLFIT Plugin (dose response Fit 205) for IC50-determination. As quality control the Z'-factor is calculated from 16 positive and negative control values. Only assay results showing a Z'-factor ≥ 0.5 are used for further analysis.

[2] = system: EGFR vIII Ba/F3; test: CellTiter-Glo cell viability, EGFR vIII Ba/F3; type: cell-based; details: Mus musculus, BaF3, 72 h, read-out: EGFR vIII Ba/F3 CTG IC50 /
Experimental: as §1

[3] = system: Her2 Exon 20 InsYVMA Ba/F3; test: CellTiter-Glo cell viability, Her2 Exon 20 InsYVMA Ba/F3; type: cell-based; details: Mus musculus, BaF3, 72 h, read-out: Her2 Exon 20 InsYVMA Ba/F3 CTG IC50
Experimental: as §1

[4] = system: A431; test: CellTiter-Glo cell viability, A431; type: cell-based; details: Homo sapiens, A-431, 72 h, read-out: A431 CTG IC50
Experimental: as §1

[5] = biological target: EGFR wt (Homo sapiens, UniProt P00533); test: Lance assay, EGFR wt; details: biochemical Lance assay
[6] = system: Cuto-17; test: CellTiter-Glo cell viability, Cuto-17; type: cell-based; details: CUTO17, 72 h, read-out: Cuto-17 CTG IC50
Experimental: as §1

[7] = biological target: EGFR T790M L858R (Homo sapiens, UniProt P00533, L858R/T790M); test: Lance assay, EGFR T790M L858R; details: biochemical Lance assay
[8] = system: H1975; test: CellTiter-Glo cell viability, H1975; type: cell-based; details: Homo sapiens, NCI-H1975, 72 h, read-out: H1975 CTG IC50
Experimental: as §1

[9] = biological target: T1, HER2 INS YVMA (Homo sapiens, UniProt P04626, INS775YVMA); test: Lance Kinase Activity Assay, Her2 Exon 20 InsYVMA; details: biochemical Lance assay
T1 construct: purchased DPF
Experimental: This protocol describes how the Lance Kinase Activity Assay was performed to determine IC50 values of compounds of general formula (I) against HER2 INS YVMA. The principle behind this enzymatic assay is based upon the phosphorylation of the Ulight-peptide substrate. It is detected by using a specific EU-labeled anti-phospho peptide antibody. The binding of the Eu labeled anti-phospho peptide antibody to the phosphorylated ULight labeled peptide gives rise to a FRET-signal. Binding of an inhibitor to the kinase prevents phosphorylation of the Ulight-substrate, resulting in a loss of FRET. In table 2 is summarized the relevant information for the LANCE assay. Table 2: Reagents, stock concentrations and final assay concentrations for Her2 INS YVMA.
The compounds of general formula (I) summarized in Table 3 were serial diluted from a 10 mM DMSO stock solution 1:3 over 8 steps in a total volume of 20 µl. For every sample, 8 µl of kinase-substrate mix was transferred into a suitable assay plate (e.g. Corning #3673). Compound was added via pintool transfer (10nl/well) using a Biomek FX robot (BeckmanCoulter). Reaction was started by addition of 2µl ATP working solution and mixed using variomag teleshaker (Thermo Fischer Scientific). After 1 h incubation at room temperature the reaction was stopped with 10µl detection mix containing the Eu-labeled phosphospecific antibody and 10mM EDTA. After a second incubation period of 1 h at room temperature the FRET signal was measured at 340 nm excitation, 665 nm and 615 nm emission (for the ULight-substrate and Eu-AB, respectively) with an Envision spectrophotometer (Perkin Elmer, Waltham, MA, USA) with 50 µs delay and 300 µs integration time. IC50 values were determined from the sigmoidal dose response curves with the software Quattro Workflow (Quattro GmbH, Munich, Germany).

Sequence of EGFR T790M L858R (P00533 25-1210 T790M/L858R): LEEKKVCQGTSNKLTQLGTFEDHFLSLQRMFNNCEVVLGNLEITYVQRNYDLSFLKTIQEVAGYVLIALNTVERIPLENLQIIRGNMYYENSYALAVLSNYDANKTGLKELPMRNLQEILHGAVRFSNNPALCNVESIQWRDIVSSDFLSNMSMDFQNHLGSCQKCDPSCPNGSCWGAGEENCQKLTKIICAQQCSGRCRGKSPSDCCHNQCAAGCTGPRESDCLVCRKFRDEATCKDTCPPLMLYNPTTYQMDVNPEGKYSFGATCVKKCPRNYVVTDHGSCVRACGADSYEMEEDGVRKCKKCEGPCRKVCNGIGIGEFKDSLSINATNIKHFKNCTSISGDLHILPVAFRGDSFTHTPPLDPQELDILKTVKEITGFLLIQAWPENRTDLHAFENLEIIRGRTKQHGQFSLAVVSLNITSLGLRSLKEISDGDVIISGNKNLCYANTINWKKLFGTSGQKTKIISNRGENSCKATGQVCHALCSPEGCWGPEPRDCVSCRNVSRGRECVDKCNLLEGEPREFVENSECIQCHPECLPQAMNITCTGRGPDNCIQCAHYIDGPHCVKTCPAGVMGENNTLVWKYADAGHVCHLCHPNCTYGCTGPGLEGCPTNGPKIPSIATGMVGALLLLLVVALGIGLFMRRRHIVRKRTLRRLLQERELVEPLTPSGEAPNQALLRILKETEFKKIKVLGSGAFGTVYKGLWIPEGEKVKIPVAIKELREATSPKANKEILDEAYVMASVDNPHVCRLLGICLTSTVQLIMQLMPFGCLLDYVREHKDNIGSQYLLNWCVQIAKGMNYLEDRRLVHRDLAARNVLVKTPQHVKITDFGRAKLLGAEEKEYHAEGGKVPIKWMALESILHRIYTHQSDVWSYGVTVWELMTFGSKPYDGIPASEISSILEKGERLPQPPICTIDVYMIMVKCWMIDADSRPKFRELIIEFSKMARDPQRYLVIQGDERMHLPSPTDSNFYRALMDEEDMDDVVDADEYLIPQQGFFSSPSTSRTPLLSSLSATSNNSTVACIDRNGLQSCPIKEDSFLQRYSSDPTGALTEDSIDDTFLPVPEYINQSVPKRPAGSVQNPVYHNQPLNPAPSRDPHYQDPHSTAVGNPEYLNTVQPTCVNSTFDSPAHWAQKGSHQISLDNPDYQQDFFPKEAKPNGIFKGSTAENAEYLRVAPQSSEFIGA
Sequence of EGFR wt (P00533 25-1210): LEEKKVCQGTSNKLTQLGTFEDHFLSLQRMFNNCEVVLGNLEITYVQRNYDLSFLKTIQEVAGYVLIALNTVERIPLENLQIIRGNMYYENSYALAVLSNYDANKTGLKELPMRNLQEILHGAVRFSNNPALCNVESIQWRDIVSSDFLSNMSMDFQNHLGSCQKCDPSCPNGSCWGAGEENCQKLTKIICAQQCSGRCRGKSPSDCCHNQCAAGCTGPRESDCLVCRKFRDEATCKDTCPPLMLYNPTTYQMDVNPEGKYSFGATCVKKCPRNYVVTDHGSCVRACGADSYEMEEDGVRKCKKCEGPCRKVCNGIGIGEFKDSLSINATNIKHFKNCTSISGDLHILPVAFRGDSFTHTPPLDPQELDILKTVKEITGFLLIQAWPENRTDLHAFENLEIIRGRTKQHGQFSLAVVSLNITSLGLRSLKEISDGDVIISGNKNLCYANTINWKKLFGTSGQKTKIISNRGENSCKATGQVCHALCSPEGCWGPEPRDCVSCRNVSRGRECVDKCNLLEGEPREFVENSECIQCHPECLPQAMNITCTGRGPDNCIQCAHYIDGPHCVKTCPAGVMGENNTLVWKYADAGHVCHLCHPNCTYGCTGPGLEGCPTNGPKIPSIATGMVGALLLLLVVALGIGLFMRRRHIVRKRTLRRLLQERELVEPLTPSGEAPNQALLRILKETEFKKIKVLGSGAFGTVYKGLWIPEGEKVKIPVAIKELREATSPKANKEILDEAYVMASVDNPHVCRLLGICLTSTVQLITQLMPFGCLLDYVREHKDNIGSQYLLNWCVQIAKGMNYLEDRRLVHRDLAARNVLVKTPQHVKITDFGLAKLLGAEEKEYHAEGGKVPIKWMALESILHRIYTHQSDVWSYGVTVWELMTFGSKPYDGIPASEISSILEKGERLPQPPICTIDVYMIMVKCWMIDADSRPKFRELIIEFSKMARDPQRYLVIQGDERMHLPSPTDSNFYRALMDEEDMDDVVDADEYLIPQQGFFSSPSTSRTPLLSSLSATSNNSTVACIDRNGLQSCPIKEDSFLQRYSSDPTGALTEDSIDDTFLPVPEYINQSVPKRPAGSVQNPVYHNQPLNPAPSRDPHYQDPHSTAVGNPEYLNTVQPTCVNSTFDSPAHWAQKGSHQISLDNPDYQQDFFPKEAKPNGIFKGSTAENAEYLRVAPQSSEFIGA
T1 sequence (P04626 with tags, fused parts or gaps INS775YVMA): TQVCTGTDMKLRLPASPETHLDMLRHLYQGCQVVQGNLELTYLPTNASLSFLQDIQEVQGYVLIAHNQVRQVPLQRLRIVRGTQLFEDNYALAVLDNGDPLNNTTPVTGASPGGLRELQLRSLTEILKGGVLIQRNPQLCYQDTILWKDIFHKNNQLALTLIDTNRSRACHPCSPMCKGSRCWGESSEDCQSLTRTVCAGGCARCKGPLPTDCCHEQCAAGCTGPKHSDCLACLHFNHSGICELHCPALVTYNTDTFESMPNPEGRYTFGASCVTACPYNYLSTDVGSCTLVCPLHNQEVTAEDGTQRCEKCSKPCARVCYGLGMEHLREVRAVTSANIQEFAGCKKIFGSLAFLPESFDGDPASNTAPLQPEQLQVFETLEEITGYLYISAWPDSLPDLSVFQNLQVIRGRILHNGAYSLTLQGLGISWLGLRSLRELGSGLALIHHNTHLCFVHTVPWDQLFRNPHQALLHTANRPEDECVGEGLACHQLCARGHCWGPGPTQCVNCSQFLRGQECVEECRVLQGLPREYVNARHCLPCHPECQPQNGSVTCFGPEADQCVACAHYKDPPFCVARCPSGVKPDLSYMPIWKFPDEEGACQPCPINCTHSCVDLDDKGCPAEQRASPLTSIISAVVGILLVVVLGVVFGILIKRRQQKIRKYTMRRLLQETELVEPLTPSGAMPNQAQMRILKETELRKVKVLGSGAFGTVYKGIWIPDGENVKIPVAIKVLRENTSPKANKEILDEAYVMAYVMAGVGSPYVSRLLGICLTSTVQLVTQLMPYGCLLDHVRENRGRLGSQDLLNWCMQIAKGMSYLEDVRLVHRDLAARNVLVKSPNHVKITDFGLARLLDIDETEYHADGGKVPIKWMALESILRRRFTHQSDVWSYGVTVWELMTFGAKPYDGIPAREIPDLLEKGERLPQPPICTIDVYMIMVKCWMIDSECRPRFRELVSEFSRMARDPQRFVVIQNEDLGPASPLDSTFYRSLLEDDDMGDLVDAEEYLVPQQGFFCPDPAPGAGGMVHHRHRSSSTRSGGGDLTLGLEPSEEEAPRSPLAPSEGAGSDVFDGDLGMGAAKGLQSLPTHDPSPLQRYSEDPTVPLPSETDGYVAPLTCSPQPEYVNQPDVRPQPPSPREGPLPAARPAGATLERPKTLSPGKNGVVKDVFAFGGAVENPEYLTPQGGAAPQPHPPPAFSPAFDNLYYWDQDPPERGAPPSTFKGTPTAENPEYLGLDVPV

IC50 [1] | IC50 [2] | IC50 [3] | IC50 [4] | IC50 [5] | IC50 [7] | IC50 [8] | IC50 [9] | Compound | IC50 [6]
100 to 500 nM | 100 to 500 nM | 500 to 1000 nM | 1 to 10 µM | ≤ 50 nM | ≤ 50 nM | 1000 to 10000 nM | 50 to 100 nM | C=CC(=O)Nc1cc(-c2c(-c3cn[nH]c3)[nH]c3ncc(C(=O)OC(C)C)c(C)c23)ccc1C [Example 20, isopropyl 3-(3-acrylamido-4-methylphenyl)-4-methyl-2-(1 H-pyrazol-4-yl)-1 H-pyrrolo[2,3-b]pyridine-5-carboxylate] | 500 to 1000 nM
50 to 100 nM | ≤ 50 nM | 100 to 500 nM | 1 to 10 µM | ≤ 50 nM | ≤ 50 nM | 100 to 500 nM | ≤ 50 nM | C=CC(=O)Nc1cc(-c2c(-c3cnn(C)c3)[nH]c3ncc(OCC)cc23)cc(F)c1C [Example 3, N-(5-(5-ethoxy-2-(1-methyl-1H-pyrazol-4-yl)-1H-pyrrolo[2,3-b]pyridin-3-yl)-3-fluoro-2-methylphenyl)acrylamide 2,2,2-trifluoroacetate] | ≤ 50 nM
100 to 500 nM | 100 to 500 nM | 100 to 500 nM | 1 to 10 µM | ≤ 50 nM | ≤ 50 nM | 500 to 1000 nM | ≤ 50 nM | C=CC(=O)Nc1cc(-c2c(-c3cnn(CC)c3)[nH]c3ncc(C(=O)OC(C)C)cc23)ccc1C [Example 6, isopropyl 3-(3-acrylamido-4-methylphenyl)-2-(1-ethyl-1H-pyrazol-4-yl)-1H-pyrrolo[2,3-b]pyridine-5-carboxylate] | 500 to 1000 nM
100 to 500 nM | 100 to 500 nM | 500 to 1000 nM | 1 to 10 µM | ≤ 50 nM | 100 to 500 nM | 500 to 1000 nM | 500 to 1000 nM | C=CC(=O)Nc1cc(-c2c(-c3cnn(Cc4ccccc4)c3)[nH]c3ncc(C(=O)OC(C)C)c(C)c23)ccc1C [Example 9, isopropyl 3-(3-acrylamido-4-methylphenyl)-2-(1-benzyl-1 H-pyrazol-4-yl)-4-methyl-1 H-pyrrolo[2,3-b]pyridine-5-carboxylate] | 500 to 1000 nM
≤ 50 nM | 100 to 500 nM | 100 to 500 nM | 1 to 10 µM | ≤ 50 nM | 50 to 100 nM | 100 to 500 nM | 100 to 500 nM | C=CC(=O)Nc1cc(-c2c(-c3cnn(C(C)C)c3)[nH]c3ncc(C(=O)OC(C)C)c(C)c23)ccc1C [Example 13, isopropyl 3-(3-acrylamido-4-methylphenyl)-2-(1-isopropyl-1 H-pyrazol-4-yl)-4-methyl-1H-pyrrolo[2,3-b]pyridine-5-carboxylate] | 100 to 500 nM
100 to 500 nM | 100 to 500 nM | 100 to 500 nM | 1 to 10 µM | ≤ 50 nM | 100 to 500 nM | 500 to 1000 nM | 500 to 1000 nM | C=CC(=O)Nc1cc(-c2c(-c3cnn(C4CCC4)c3)[nH]c3ncc(C(=O)OC(C)C)c(C)c23)ccc1C [Example 16, isopropyl 3-(3-acrylamido-4-methylphenyl)-2-(1-cyclobutyl-1 H-pyrazol-4-yl)-4-methyl-1H-pyrrolo[2,3-b]pyridine-5-carboxylate] | 500 to 1000 nM
100 to 500 nM | ≤ 50 nM | 100 to 500 nM | 1 to 10 µM | ≤ 50 nM | ≤ 50 nM | 100 to 500 nM | ≤ 50 nM | C=CC(=O)Nc1cc(-c2c(-c3cnn(C)c3)[nH]c3ncc(C(=O)OC(C)C)cc23)cc(F)c1C [Example 2, Isopropyl 3-(3-acrylamido-5-fluoro-4-methylphenyl)-2-(1-methyl-1H-pyrazol-4-yl)-1H-pyrrolo[2,3-b]pyridine-5-carboxylate 2,2,2-trifluoroacetate] | 100 to 500 nM
50 to 100 nM | 100 to 500 nM | 100 to 500 nM | 1 to 10 µM | ≤ 50 nM | 50 to 100 nM | 100 to 500 nM | 100 to 500 nM | C=CC(=O)Nc1cc(-c2c(-c3cnn(CCC)c3)[nH]c3ncc(C(=O)OC(C)C)c(C)c23)ccc1C [Example 14, isopropyl 3-(3-acrylamido-4-methylphenyl)-4-methyl-2-(1-propyl-1 H-pyrazol-4-yl)-1H-pyrrolo[2,3-b]pyridine-5-carboxylate] | 100 to 500 nM
50 to 100 nM | 100 to 500 nM | 100 to 500 nM | 1 to 10 µM | ≤ 50 nM | 50 to 100 nM | 500 to 1000 nM | 50 to 100 nM | C=CC(=O)Nc1cc(-c2c(-c3cnn(C4CC4)c3)[nH]c3ncc(C(=O)OC(C)C)c(C)c23)ccc1C [Example 10, isopropyl 3-(3-acrylamido-4-methylphenyl)-2-(1-cyclopropyl-1 H-pyrazol-4-yl)-4-methyl-1 H-pyrrolo[2,3-b]pyridine-5-carboxylate] | 100 to 500 nM
≤ 50 nM | 100 to 500 nM | 100 to 500 nM | 1 to 10 µM | ≤ 50 nM | ≤ 50 nM | 100 to 500 nM | ≤ 50 nM | C=CC(=O)Nc1cc(-c2c(-c3cnn(CC)c3)[nH]c3ncc(C(=O)OC(C)C)c(C)c23)ccc1C [Example 8, isopropyl 3-(3-acrylamido-4-methylphenyl)-2-(1-ethyl-1 H-pyrazol-4-yl)-4-methyl-1 H-pyrrolo[2,3-b]pyridine-5-carboxylate] | 100 to 500 nM
100 to 500 nM | 100 to 500 nM | 100 to 500 nM | 1 to 10 µM | ≤ 50 nM | ≤ 50 nM | 500 to 1000 nM | ≤ 50 nM | C=CC(=O)Nc1cc(-c2c(-c3cnn(CCOC)c3)[nH]c3ncc(C(=O)OC(C)C)c(C)c23)ccc1C [Example 11, isopropyl 3-(3-acrylamido-4-methylphenyl)-2-(1-(2-methoxyethyl)-1 H-pyrazol-4-yl)-4-methyl-1 H-pyrrolo[2,3-b]pyridine-5-carboxylate] | 100 to 500 nM
50 to 100 nM | 100 to 500 nM | 100 to 500 nM | 1 to 10 µM | ≤ 50 nM | ≤ 50 nM | 100 to 500 nM | 50 to 100 nM | C=CC(=O)Nc1cc(-c2c(-c3cnn(CC4CC4)c3)[nH]c3ncc(C(=O)OC(C)C)c(C)c23)ccc1C [Example 21, isopropyl 3-(3-acrylamido-4-methylphenyl)-2-(1-(cyclopropylmethyl)-1 H-pyrazol-4-yl)-4-methyl-1 H-pyrrolo[2,3-b]pyridine-5-carboxylate] | 100 to 500 nM

Compound | IC50 [1] | IC50 [2] | IC50 [3] | IC50 [4] | IC50 [5] | IC50 [7] | IC50 [8] | IC50 [9] | IC50 [6]
C=CC(=O)Nc1cc(-c2c(-c3cnn(C)c3)[nH]c3ncc(O[C@@H](C)CC)cc23)ccc1C [Example 12, (S)-N-(5-(5-(sec-butoxy)-2-(1-methyl-1H-pyrazol-4-yl)-1H-pyrrolo[2,3-b]pyridin-3-yl)-2-methylphenyl)acrylamide 2,2,2-trifluoroacetate] | 100 to 500 nM | 100 to 500 nM | 100 to 500 nM | 1 to 10 µM | ≤ 50 nM | ≤ 50 nM | 500 to 1000 nM | ≤ 50 nM | 100 to 500 nM
